According to patent US8344007B2, “Water-soluble polymer-based cantharimides as potentially selective anti-tumor agents” (priority 2009, dated 2013):
Converted amounts (≈) assume the structure as drawn.

Key:
[1] = test system: Hep3B; test: MTS assay, Hep3B cell growth; type: cell-based; settings: Homo sapiens, 48 hours of incubation
Text: (§1) An acute myelogenous leukaemia (AML) cell line (KG1a) and a hepatocellular carcinoma (HCC) cell line (Hep3B) may be obtained from American Type of Culture Collection (ATCC). The AML cell line may be maintained in RPMI 1640 (JRH Biosciences) supplemented with 10% of heat inactivated fetal bovine serum (Hyclone), together with antibiotics including penicillin and streptomycin. The Hep3B HCC cell line may be maintained in DMEM with 10% of heat inactivated fetal bovine serum (Hyclone), together with antibiotics including penicillin and streptomycin. Cells may be allowed to grow in a humidified cell culture incubator kept at 5% carbon dioxide.
(§2) The effect of the synthesized cantharimides on the growth of the cell lines described above was investigated in vitro using a standard MTS ([3-(4,5-dimethylthiazol-2-yl)-5-(3-carboxymethoxyphen-yl)-2-(4-sulfophenyl)-2H-tetrazolium]) assay. Changes in the cellular viability of cell that include Hep3B and SKHep-1 with cantharidin analogues were monitored using the MTS activity assay. In particular, 1×10^4 hepatoma carcinoma cells (SK-Hep-1) were seeded at day 0. For the MTS assay, the medium was changed after 24 hours, and various compounds were then added at different concentrations. For bone marrow cells, compounds were added at the same day as the seeding. After 48 hours of incubation, the medium was removed, and MTS/PMS solution was added. The added medium was incubated for exactly 30 minutes. Subsequently, optical absorbance was determined at 490 nm using an optical absorbance detector (available from Promega).
More than 30 cantharimides were screened for their effects on cell proliferation and potential cytotoxicity in the two cell lines of Hep3B and SKHep-1. The activities of cantharimide were monitored in the presence of dicantharidic (a commercially available cantharidin-mimic) as a reference control.

[2] = Solubility; type: physicochemical
[3] = test system: leukemia cell line KG1a; test: MTS assay, leukemia cell line KG1a; type: cell-based; settings: for IC50: Homo sapiens, KG-1a, concentration necessary for 50% of MTS reduction ability vs control, read-out: MTS50 activity
Text: as §1, §2
The cytotoxic activity of cantharimide of formula (3) using a leukemia cell line KG1a was investigated by means of a MTS assay. The MTS50 activity was measured as the concentration necessary for 50% of MTS reduction ability by the chemical treated cell as compared with the control. […] On the other hand, cantharimide gave a value of about 5 µg/ml for MTS50 activity against the same cancer cell line.

[4] = test system: non-malignant haematological disorder bone marrow cells; test: MTS assay, primary culture of bone marrow cells; type: cell-based, human; design: toxicity to bone marrow cells: dose or concentration left out as unconfirmed
Text: (§3) Non-malignant hematological disorder bone marrow cells may be collected by a bone marrow aspirate method from consented patients from clinical wards of Prince of Wales Hospital (Hong Kong, China), according to the regulation of the Hospital. Immediately after collection, mononuclear cells may be enriched by Ficoll Plaque (available from General Electricity) gradient centrifugation. Cells may be washed twice by phosphate buffered saline and resuspended in complete medium. Viable cell percentage may then be estimated by trypan blue exclusion assay and counted using a haemacytometer.
as §2, with “After 48 hours of incubation, the medium was removed, and MTS/PMS solution was added. The added medium was incubated for exactly 30 minutes.” left out

[5] = test system: KG1a AML cell line; test: Morphology assay, KG1a AML cell line; type: cell-based; design: dose or concentration left out as unconfirmed; settings: 48 hours incubation
Text: as §1
(§4) The morphological effect of cytotoxic action of cantharidic acid and cantharimide on leukemia cells are depicted in FIGS. 1A to 1F. The untreated non-malignant haematological disorder bone marrow and KG1a AML cell lines are depicted in FIGS. 1A and 1D, respectively. The non-malignant haematological disorder bone marrow and KG1a AML cell lines treated with 5 µg/mL of dicantharidic acid are depicted in FIGS. 1B and 1E, respectively. The non-malignant haematological disorder bone marrow and KG1a AML cell lines treated with 5 µg/mL of cantharimide are depicted in FIGS. 1C and 1F, respectively.

[6] = test system: non-malignant haematological disorder bone marrow; test: Morphology assay, bone marrow; type: cell-based, human; settings: 48 hours incubation
Text: as §3
The toxicity on non-malignant haematological bone marrow sample was tested to evaluate the side effects of cantharidin, which included bone marrow suppression, and gastrointestinal and urinary tract toxicity.
as §4

| SMILES | IC50 [1] | Solubility in water [2] | also measured |
| --- | --- | --- | --- |
| C[C@@]12C(=O)N(c3nc4ccccc4s3)C(=O)[C@]1(C)[C@H]1CC[C@@H]2O1 [Entry 1] | ~6 µg/mL (≈ 18.3 µM) | Poor |  |
| Cc1ccc2nc(N3C(=O)[C@@]4(C)[C@@H]5CC[C@@H](O5)[C@@]4(C)C3=O)sc2c1 [Entry 2] | ~20 µg/mL (≈ 58.4 µM) | Poor |  |
| COc1ccc2nc(N3C(=O)[C@@]4(C)[C@@H]5CC[C@@H](O5)[C@@]4(C)C3=O)sc2c1 [Entry 3] | ~5 µg/mL (≈ 14 µM) | Poor |  |
| C[C@@]12C(=O)N(c3nc4ccc(OC(F)(F)F)cc4s3)C(=O)[C@]1(C)[C@H]1CC[C@@H]2O1 [Entry 4] | ~10 µg/mL (≈ 24.2 µM) | Fair |  |
| C[C@@]12C(=O)N(c3nc4ccc(C(F)(F)F)cc4s3)C(=O)[C@]1(C)[C@H]1CC[C@@H]2O1 [Entry 5] | ~5 µg/mL (≈ 12.6 µM) | Fair |  |
| C[C@@]12C(=O)N(c3nc4ccc(F)cc4s3)C(=O)[C@]1(C)[C@H]1CC[C@@H]2O1 [Entry 6] | ~5 µg/mL (≈ 14.4 µM) | Poor |  |
| C[C@@]12C(=O)N(c3nc4ccc(C(=O)O)cc4s3)C(=O)[C@]1(C)[C@H]1CC[C@@H]2O1 [Entry 7] | ~5 µg/mL (≈ 13.4 µM) | Good | IC50 [3]: ~5 µg/mL (≈ 13.4 µM); cytotoxic activity to normal bone marrow cells [4]: lack of cytotoxic activity; morphological effect on leukemia cells [5]: induced loss of colony formation potential and cell shrinkage; morphological effect on bone marrow cells [6]: colony formation remained unchanged; solubility ([2]; DMSO, organic solvent or mixture): 250 mg/mL (≈ 671000 µM) |
| COC(=O)c1ccc2nc(N3C(=O)[C@@]4(C)[C@@H]5CC[C@@H](O5)[C@@]4(C)C3=O)sc2c1 [Entry 8] |  | Good |  |
| CCCCOC(=O)c1ccc2nc(N3C(=O)[C@@]4(C)[C@@H]5CC[C@@H](O5)[C@@]4(C)C3=O)sc2c1 [Entry 9] |  | Good |  |
| C[C@]1(C(=O)O)[C@@H]2CC[C@@H](O2)[C@@]1(C)C(=O)O [Entry 11, reference compound] | ~0.25 µg/mL (≈ 1.17 µM) | Excellent |  |
| CC1(C(=O)O)C2CCC(O2)C1(C)C(=O)O (stereo not shown) [dicantharidic acid, reference compound] |  |  | IC50 [3]: ~0.5 µg/mL (≈ 2.33 µM); activity to the cancer cell line compared to cantharimide ([3]; MTS50): 10 fold; toxicity to bone marrow cells ([4]; concentration down to 0.15625, 48 hours of incubation): extremely toxic; morphological effect on leukemia cells [5]: induced loss of colony formation potential and cell shrinkage; morphological effect on bone marrow cells [6]: induced a similar loss |
